Measured values from patent US7842496B2, “Advanced selective plating media” (University of Maryland, priority 2006, dated 2010).
Counter-ions that a name gives are not always drawn.

Test system: Proteus
Assay: Proteus background growth, plates inoculated with mixed culture of Proteus and Shigella
Assay type: cell-based
Conditions: general statement
Source text: FIG. 6 is a photograph of two plates. The plate on the right is coated with the selective growth media N4 agar of the present invention. The plate on the left is coated with SS agar.
FIG. 7 presents a photograph of two agar coated plates. On the right is a plate coated with a prototype N4 formulation assessing the concentration of NIAPROOF®4 for the suppression of competing, background bacterial growth while allowing good growth of Shigella. The plate on the left is coated with XLD agar. Both plates were inoculated with a mixed culture of Proteus and Shigella organisms and allowed to grow overnight.

SMILES: CCCCC(CC)CCC(CC(C)C)OS(=O)(=O)O (stereo not shown) [NIAPROOF®4, 7-ethyl-2-methyl-4-undecanol hydrogen sulfate]
- Suppression of Proteus spp.: very potent reagent in suppressing Proteus spp.
